According to PubChem BioAssay (NCI):
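These data come from cells grown in 96-well plates and exposed to compound for 48 hours at five concentrations. GI50 marks 50% less growth. TGI is the concentration that stops growth completely.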

Experiments:
Test in all cases: inhibition of tumour cell growth, NCI panel, 48 h
SNB-19 CNS = test system: SNB-19 CNS
OVCAR-5 ovarian = test system: OVCAR-5 ovarian
HOP-92 NSCLC = test system: HOP-92 NSCLC
HCT-116 colon = test system: HCT-116 colon
UO-31 renal = test system: UO-31 renal
MOLT-4 leukemia = test system: MOLT-4 leukemia
M14 melanoma = test system: M14 melanoma
K-562 leukemia = test system: K-562 leukemia
MALME-3M melanoma = test system: MALME-3M melanoma
PC-3 prostate = test system: PC-3 prostate
COLO 205 colon = test system: COLO 205 colon
DU-145 prostate = test system: DU-145 prostate
CCRF-CEM leukemia = test system: CCRF-CEM leukemia
MDA-MB-231 breast = test system: MDA-MB-231 breast
SK-MEL-28 melanoma = test system: SK-MEL-28 melanoma
SK-MEL-5 melanoma = test system: SK-MEL-5 melanoma
SF-539 CNS = test system: SF-539 CNS
A549 NSCLC = test system: A549 NSCLC
SR leukemia = test system: SR leukemia
MDA-MB-435 = test system: MDA-MB-435
A498 renal = test system: A498 renal
HS 578T breast = test system: HS 578T breast
SNB-75 CNS = test system: SNB-75 CNS
LOX IMVI melanoma = test system: LOX IMVI melanoma
ACHN renal = test system: ACHN renal
IGROV1 ovarian = test system: IGROV1 ovarian
OVCAR-4 ovarian = test system: OVCAR-4 ovarian
OVCAR-3 ovarian = test system: OVCAR-3 ovarian
UACC-62 melanoma = test system: UACC-62 melanoma
TK-10 renal = test system: TK-10 renal
HL-60(TB) leukemia = test system: HL-60(TB) leukemia
T-47D breast = test system: T-47D breast
NCI-H226 lung = test system: NCI-H226 lung
HT29 colon = test system: HT29 colon
HCC-2998 colon = test system: HCC-2998 colon
NCI/ADR-RES ovarian = test system: NCI/ADR-RES ovarian
MCF7 breast = test system: MCF7 breast
RPMI-8226 leukemia = test system: RPMI-8226 leukemia
U251 CNS = test system: U251 CNS
786-0 renal = test system: 786-0 renal
CAKI-1 renal = test system: CAKI-1 renal
OVCAR-8 ovarian = test system: OVCAR-8 ovarian
SF-295 CNS = test system: SF-295 CNS
NCI-H522 lung = test system: NCI-H522 lung
SK-OV-3 ovarian = test system: SK-OV-3 ovarian
SK-MEL-2 melanoma = test system: SK-MEL-2 melanoma
NCI-H460 lung = test system: NCI-H460 lung
HOP-62 NSCLC = test system: HOP-62 NSCLC
NCI-H23 lung = test system: NCI-H23 lung
KM12 colon = test system: KM12 colon
SF-268 CNS = test system: SF-268 CNS
EKVX NSCLC = test system: EKVX NSCLC
UACC-257 melanoma = test system: UACC-257 melanoma
SN12C renal = test system: SN12C renal
RXF 393 renal = test system: RXF 393 renal
SW-620 colon = test system: SW-620 colon
BT-549 breast = test system: BT-549 breast
HCT-15 colon = test system: HCT-15 colon

COc1ccc(-c2cc(-c3ccccc3)nc(SCCCC(=O)NO)n2)cc1
GI50 (SNB-19 CNS): 2190 nM | TGI (SNB-19 CNS): 9270 nM | GI50 (OVCAR-5 ovarian): 979 nM | TGI (OVCAR-5 ovarian): 6090 nM | GI50 (HOP-92 NSCLC): 1710 nM | TGI (HOP-92 NSCLC): 5420 nM | GI50 (HCT-116 colon): 531 nM | TGI (HCT-116 colon): 12700 nM | GI50 (UO-31 renal): 239 nM | TGI (UO-31 renal): 991 nM | GI50 (MOLT-4 leukemia): 758 nM | TGI (MOLT-4 leukemia): 10900 nM | GI50 (M14 melanoma): 894 nM | TGI (M14 melanoma): 3920 nM | GI50 (K-562 leukemia): 762 nM | TGI (K-562 leukemia): 18000 nM | GI50 (MALME-3M melanoma): 1000 nM | TGI (MALME-3M melanoma): 4820 nM | GI50 (PC-3 prostate): 1610 nM | TGI (PC-3 prostate): 8390 nM | GI50 (COLO 205 colon): 2080 nM | TGI (COLO 205 colon): 6940 nM | GI50 (DU-145 prostate): 1060 nM | TGI (DU-145 prostate): 9580 nM | GI50 (CCRF-CEM leukemia): 387 nM | TGI (CCRF-CEM leukemia): 13500 nM | GI50 (MDA-MB-231 breast): 1570 nM | TGI (MDA-MB-231 breast): 6100 nM | GI50 (SK-MEL-28 melanoma): 1250 nM | TGI (SK-MEL-28 melanoma): 3120 nM | GI50 (SK-MEL-5 melanoma): 1260 nM | TGI (SK-MEL-5 melanoma): 2750 nM | GI50 (SF-539 CNS): 1470 nM | TGI (SF-539 CNS): 4320 nM | GI50 (A549 NSCLC): 1740 nM | TGI (A549 NSCLC): 8450 nM | GI50 (SR leukemia): 363 nM | TGI (SR leukemia): > 33300 nM | GI50 (MDA-MB-435): 995 nM | TGI (MDA-MB-435): 3110 nM | GI50 (A498 renal): 816 nM | TGI (A498 renal): 2530 nM | GI50 (HS 578T breast): 1660 nM | TGI (HS 578T breast): 9270 nM | GI50 (SNB-75 CNS): 964 nM | TGI (SNB-75 CNS): 4950 nM | GI50 (LOX IMVI melanoma): 240 nM | TGI (LOX IMVI melanoma): 1950 nM | GI50 (ACHN renal): 356 nM | TGI (ACHN renal): 1460 nM | GI50 (IGROV1 ovarian): 1110 nM | TGI (IGROV1 ovarian): 3830 nM | GI50 (OVCAR-4 ovarian): 1260 nM | TGI (OVCAR-4 ovarian): 9010 nM | GI50 (OVCAR-3 ovarian): 1200 nM | TGI (OVCAR-3 ovarian): 5170 nM | GI50 (UACC-62 melanoma): 756 nM | TGI (UACC-62 melanoma): 2530 nM | GI50 (TK-10 renal): 369 nM | TGI (TK-10 renal): 9630 nM | GI50 (HL-60(TB) leukemia): 1180 nM | TGI (HL-60(TB) leukemia): 7000 nM | GI50 (T-47D breast): 804 nM | TGI (T-47D breast): 15100 nM | GI50 (NCI-H226 lung): 1680 nM | TGI (NCI-H226 lung): 6080 nM | GI50 (HT29 colon): 1640 nM | TGI (HT29 colon): 10900 nM | GI50 (HCC-2998 colon): 1700 nM | TGI (HCC-2998 colon): 3810 nM | GI50 (NCI/ADR-RES ovarian): 267 nM | TGI (NCI/ADR-RES ovarian): 1600 nM | GI50 (MCF7 breast): 1900 nM | TGI (MCF7 breast): 10000 nM | GI50 (RPMI-8226 leukemia): 454 nM | TGI (RPMI-8226 leukemia): > 22900 nM | GI50 (U251 CNS): 1120 nM | TGI (U251 CNS): 4220 nM | GI50 (786-0 renal): 573 nM | TGI (786-0 renal): 3490 nM | GI50 (CAKI-1 renal): 335 nM | TGI (CAKI-1 renal): 1450 nM | GI50 (OVCAR-8 ovarian): 389 nM | TGI (OVCAR-8 ovarian): 19800 nM | GI50 (SF-295 CNS): 826 nM | TGI (SF-295 CNS): 2540 nM | GI50 (NCI-H522 lung): 808 nM | TGI (NCI-H522 lung): 4320 nM | GI50 (SK-OV-3 ovarian): 1740 nM | TGI (SK-OV-3 ovarian): 5540 nM | GI50 (SK-MEL-2 melanoma): 2300 nM | TGI (SK-MEL-2 melanoma): 9260 nM | GI50 (NCI-H460 lung): 468 nM | TGI (NCI-H460 lung): 5650 nM | GI50 (HOP-62 NSCLC): 994 nM | TGI (HOP-62 NSCLC): 8880 nM | GI50 (NCI-H23 lung): 1510 nM | TGI (NCI-H23 lung): 4750 nM | GI50 (KM12 colon): 1720 nM | TGI (KM12 colon): 5290 nM | GI50 (SF-268 CNS): 1660 nM | TGI (SF-268 CNS): 5160 nM | GI50 (EKVX NSCLC): 1660 nM | TGI (EKVX NSCLC): 8070 nM | GI50 (UACC-257 melanoma): 1600 nM | TGI (UACC-257 melanoma): 8340 nM | GI50 (SN12C renal): 1610 nM | TGI (SN12C renal): 8000 nM | GI50 (RXF 393 renal): 338 nM | TGI (RXF 393 renal): 1400 nM | GI50 (SW-620 colon): 484 nM | TGI (SW-620 colon): 4850 nM | GI50 (BT-549 breast): 2760 nM | TGI (BT-549 breast): 13100 nM | GI50 (HCT-15 colon): 387 nM | TGI (HCT-15 colon): 3340 nM

C/C(=N\Nc1nc2ccccc2s1)c1ncccn1
TGI (SNB-19 CNS): > 100000 nM | TGI (OVCAR-5 ovarian): 22700 nM | TGI (HOP-92 NSCLC): 1100 nM | TGI (UO-31 renal): 395 nM | TGI (MOLT-4 leukemia): > 53900 nM | TGI (K-562 leukemia): > 100000 nM | TGI (MALME-3M melanoma): > 100000 nM | TGI (PC-3 prostate): 11100 nM | TGI (COLO 205 colon): 1190 nM | TGI (DU-145 prostate): > 100000 nM | TGI (CCRF-CEM leukemia): > 100000 nM | TGI (MDA-MB-231 breast): > 64600 nM | TGI (SK-MEL-28 melanoma): > 100000 nM | TGI (SK-MEL-5 melanoma): 219 nM | TGI (SF-539 CNS): 20000 nM | TGI (A549 NSCLC): > 20000 nM | TGI (SR leukemia): 8700 nM | TGI (MDA-MB-435): > 100000 nM | TGI (A498 renal): > 100000 nM | TGI (HS 578T breast): > 37200 nM | TGI (SNB-75 CNS): 5580 nM | TGI (ACHN renal): 177 nM | TGI (IGROV1 ovarian): 923 nM | TGI (OVCAR-3 ovarian): 2060 nM | TGI (UACC-62 melanoma): 1060 nM | TGI (HL-60(TB) leukemia): > 100000 nM | TGI (T-47D breast): > 100000 nM | TGI (HCC-2998 colon): 11900 nM | TGI (NCI/ADR-RES ovarian): 68.1 nM | TGI (MCF7 breast): > 100000 nM | TGI (U251 CNS): > 100000 nM | TGI (786-0 renal): 15800 nM | TGI (CAKI-1 renal): 5620 nM | TGI (OVCAR-8 ovarian): 50.5 nM | TGI (SF-295 CNS): 3780 nM | TGI (NCI-H522 lung): 16500 nM | TGI (SK-MEL-2 melanoma): 4460 nM | TGI (NCI-H460 lung): 15600 nM | TGI (HOP-62 NSCLC): 5780 nM | TGI (NCI-H23 lung): 1110 nM | TGI (KM12 colon): 9460 nM | TGI (SF-268 CNS): 5120 nM | TGI (EKVX NSCLC): 4540 nM | TGI (SN12C renal): 25200 nM | TGI (RXF 393 renal): 4680 nM | TGI (SW-620 colon): > 69200 nM | TGI (BT-549 breast): 3420 nM | TGI (HCT-15 colon): 2450 nM
